By IC50 is commonly meant the point on the concentration scale where inhibition reaches its midpoint.

Counter-ions that a name gives are not always drawn.

One assay has as its target HDAC8 (Homo sapiens (Human), UniProt Q9BY41). Kind of assay: In vitro enzyme inhibition assay - HDAC (HDAC-Glo I/II), HDAC8. It counts as biochemical. To be noted: read-out: HDAC IC50 (nM) HDAC 8. The method, boiled down: (§1)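 Eight compound concentrations (5-fold gradient; 1 mM DMSO stock) were assayed by HDAC-Glo I/II luminescence. IC50 was obtained by four-parameter fitting.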

The test system of another assay is NCI-H69 cells. Put plainly: In vitro cell inhibition assay - NCI-H69 cell proliferation (CellTiter-Glo). It counts as cell-based. To be noted: Homo sapiens, NCI-H69, H69 small cell lung cancer cell proliferation. The method, boiled down:
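Luminescence from CellTiter-Glo reagent served as the viability read-out after cells were exposed to compounds for 7 days at 37° C. Eight concentrations in a 5-fold series were tested in medium with 20% FBS. Inhibition was normalised to untreated and cell-free wells before IC50 fitting.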

For another assay, the system named is NCI-H1417 cells. Kind of assay: In vitro cell inhibition assay - H1417 cell proliferation (CellTiter-Glo). It counts as cell-based. Conditions: Homo sapiens, NCI-H1417, H1417 small cell lung cancer cell proliferation. In a few lines:
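Cells exposed to 8 compound concentrations (5-fold dilutions) in BEGM with 10% FBS for 7 days at 37° C., 5% CO2. Viable cells measured by CellTiter-Glo luminescence; inhibition versus no-inhibitor and no-cell controls, IC50 fitted.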

In the next assay the target is pan-HDAC. Put plainly: In vitro enzyme inhibition assay - HDAC (HDAC-Glo I/II), pan-HDAC. Format: biochemical. In a few lines:
as §1

Another assay has as its target HDAC1 (Homo sapiens (Human), UniProt Q13547). Put plainly: In vitro enzyme inhibition assay - HDAC (HDAC-Glo I/II), HDAC1. It counts as biochemical. To be noted: read-out: HDAC IC50 (nM) HDAC 1. The protocol:
2. In Vitro Enzyme Inhibition Assay—HDAC
The effect of the compound on the enzymatic activity of pan-HDAC and two isoforms (HDAC1 and HDAC8) was examined using the HDAC-Glo I/II Assay and Screening System assay to assess the level of inhibition of HDAC protease activity and selectivity in each isoform. The proteins and detection reagents were from the HDAC-Glo™ I/II Assay and Screening System (Promega). A 1 mM stock solution of the compound was prepared in DMSO and diluted in a 5-fold gradient to create a series of 8 concentrations, and a specific volume of the highest concentration was diluted 25 times with HDAC Buffer to obtain 4× working solution of the compound. […] The 384-well plate was then read on a multifunctional microplate reader, with the Luminescence channel selected to record Luminescence values (RLU). The inhibition rate was calculated using the following formula: […]
Note: ‘Negative’ refers to the group without the inhibitor; ‘Blank’ refers to the group without the enzyme.
The IC50 value was calculated by fitting the inhibition rate by GraphPad Prism software, employing log (inhibitor) vs. response-Variable Slope (four parameters) model.

Another assay concerns the target LSD1 (Homo sapiens (Human), UniProt O60341). Put plainly: In vitro enzyme inhibition assay - LSD1 (HTRF). Format: biochemical. (In general: In TR-FRET formats the signal depends on donor and acceptor labels being close together.)
For a further assay, the system named is NCI-H526 cells. Kind of assay: In vitro cell inhibition assay - NCI-H526 cell proliferation (CellTiter-Glo). Format: cell-based. Conditions: Homo sapiens, NCI-H526, 120 h, H526 small cell lung cancer cell proliferation, 5 days. The method, boiled down:
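NCI-H526 cells plated at 1×10^3 per well overnight, then treated with 8 concentrations (5-fold dilutions) in RPMI-640 with 10% FBS for 5 days at 37° C., 5% CO2. Viable cells quantified by CellTiter-Glo luminescence; IC50 fitted from inhibition rates relative to no-inhibitor and no-cell controls.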
On the technique in general: ATP-based viability assays read luminescence as a measure of living cells.

Chain of HDAC8 (Q9BY41 whole entry): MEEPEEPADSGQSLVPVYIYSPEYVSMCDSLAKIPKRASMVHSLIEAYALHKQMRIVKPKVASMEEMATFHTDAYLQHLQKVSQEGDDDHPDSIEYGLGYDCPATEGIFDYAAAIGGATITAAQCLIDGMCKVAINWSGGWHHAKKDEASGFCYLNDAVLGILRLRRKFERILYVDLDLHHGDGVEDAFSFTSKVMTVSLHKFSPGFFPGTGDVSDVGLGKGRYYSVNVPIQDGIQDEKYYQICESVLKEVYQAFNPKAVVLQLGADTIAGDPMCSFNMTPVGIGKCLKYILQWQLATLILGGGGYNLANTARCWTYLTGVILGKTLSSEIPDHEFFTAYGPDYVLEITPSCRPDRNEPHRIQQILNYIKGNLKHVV
Chain of HDAC1 (Q13547 whole entry): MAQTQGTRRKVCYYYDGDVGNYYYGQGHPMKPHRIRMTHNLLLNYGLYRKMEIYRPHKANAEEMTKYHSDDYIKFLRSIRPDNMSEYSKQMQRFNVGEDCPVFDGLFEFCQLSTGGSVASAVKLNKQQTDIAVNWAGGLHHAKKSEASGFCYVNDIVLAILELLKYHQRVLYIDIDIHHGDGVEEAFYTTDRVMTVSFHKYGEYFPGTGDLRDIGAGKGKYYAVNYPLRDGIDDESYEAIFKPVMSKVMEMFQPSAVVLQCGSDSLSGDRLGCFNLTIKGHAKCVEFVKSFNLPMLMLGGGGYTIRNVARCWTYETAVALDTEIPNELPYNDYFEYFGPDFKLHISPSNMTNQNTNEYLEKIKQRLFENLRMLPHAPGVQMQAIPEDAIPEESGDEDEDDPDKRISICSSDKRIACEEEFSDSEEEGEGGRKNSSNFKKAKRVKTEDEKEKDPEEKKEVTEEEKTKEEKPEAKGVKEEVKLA

As to `N#Cc1ccc(-c2nc(N3CCC(N)CC3)n3ccnc3c2-c2ccc(OCc3ccc(/C=C/C(=O)NO)cc3)c(O)c2)cc1F` [Example 23, (E)-3-(4-(4-(5-(4-Aminopiperidin-1-yl)-7-(4-cyano-3-fluorophenyl)imidazo[1,2-c]pyrimidin-8-yl)-2-hydroxyphenoxy)methyl)phenyl)-N-hydroxyacrylamide hydrochloride], the 50% inhibitory concentration (IC50) on HDAC8 was 320 nM; in the assay on NCI-H69 cells it was 760 nM; with NCI-H1417 cells, 1.55 nM; against pan-HDAC it was 74.4 nM; at HDAC1, 198 nM; at LSD1 it was 0.23 nM.

As for `COc1cc(N2CCC(N)CC2)nc(-c2ccc(C#N)c(F)c2)c1-c1ccc(OC/C=C/C(=O)NO)c(O)c1` [Example 29, (E)-4-(4-(6-(4-Amino-piperidin-1-yl)-2-(4-cyano-3-fluorophenyl)-4-methoxypyridin-3-yl)-2-hydroxyphenoxy)-N-hydroxybut-2-enamide hydrochloride], the concentration for half-maximal inhibition (IC50) amounted to 696 nM on HDAC8; 3200 nM in the assay with NCI-H69 cells; 92.2 nM in the assay with NCI-H1417 cells; 66.9 nM against pan-HDAC; 123 nM on HDAC1; 0.96 nM against LSD1.

For `CNC1CCN(c2ncc(-c3ccc(NCc4ccc(C(=O)NO)cc4)c(O)c3)c(-c3ccc(C#N)c(F)c3)c2C#N)CC1` [Example 39, 4-((4-(4-(5-Cyano-4-(4-cyano-3-fluorophenyl)-6-(4-(methylamino)piperidin-1-yl)pyridin-3-yl)-2-hydroxyphenyl)amino)methyl)-N-hydroxybenzamide hydrochloride], the IC50 at HDAC8 worked out at 207 nM; in the assay with NCI-H69 cells it was 2390 nM; in the assay with NCI-H1417 cells, 5.2 nM; on pan-HDAC, 167 nM; on HDAC1 it was 335 nM; against LSD1 it was 0.15 nM.

With `Cc1ccc(-c2c(-c3ccc(C#N)c(F)c3)nc(N3CCC(NC(=O)CCCCCCC(=O)NO)CC3)n3ccnc23)cc1O` [Example 56, N^1-(1-(7-(4-cyano-3-fluorophenyl)-8-(3-hydroxy-4-methylphenyl)imidazo[1,2-c]pyrimidin-5-yl)piperidin-4-yl)-N^8-hydroxyoctanediamide hydrochloride], the IC50 was 893 nM on HDAC8; 1280 nM in the assay with NCI-H69 cells; 5.4 nM in the assay on NCI-H1417 cells; 467 nM on pan-HDAC; 642 nM on HDAC1; 91.5 nM on LSD1.

`N#Cc1ccc(-c2c(-c3ccc(NC(=O)CCCCCCC(=O)NO)c(O)c3)cnc(N3CCC(N)CC3)c2C#N)cc1F` [Example 58, N^1-(4-(6-(4-aminopiperidin-1-yl)-5-cyano-4-(4-cyano-3-fluorophenyl)pyridin-3-yl)-2-hydroxyphenyl)-N^8-hydroxyoctanediamide hydrochloride]: the IC50 at HDAC8 was found to be 136 nM; with NCI-H69 cells, 3000 nM; in the assay on NCI-H1417 cells, 46.3 nM; against pan-HDAC it was 31.9 nM; on HDAC1 it was 47.4 nM; on LSD1 it was 0.1 nM.

On to `COc1ccc(-c2cnc(N3CCC(NCc4ccc(/C=C/C(=O)NO)nc4)CC3)c(CC#N)c2-c2ccc(C#N)c(F)c2)cc1O` [Example 217, (E)-3-(5-(((1-(4-(4-cyano-3-fluorophenyl)-3-(cyanomethyl)-5-(3-hydroxy-4-methoxyphenyl)pyridin-2-yl)piperidin-4-yl)amino)methyl)pyridin-2-yl)-N-hydroxyacrylamide formate], for which the IC50 with NCI-H69 cells amounted to 11.1 nM; in the assay on NCI-H526 cells, 20.9 nM; in the assay with NCI-H1417 cells it was 5.06 nM; against pan-HDAC, 0.25 nM; at HDAC1, 0.73 nM; at LSD1, 13.6 nM.

For the compound `CC(C)(O)COc1ccc(-c2cnc(N3CCC(NCc4ccc(/C=C/C(=O)NO)cc4)CC3)c(CC#N)c2-c2ccc(C#N)c(F)c2)cc1O` [Example 218, (E)-3-(4-(((1-(4-(4-Cyano-3-fluorophenyl)-3-(cyanomethyl)-5-(3-hydroxy-4-(2-hydroxy-2-methylpropoxy)phenyl)pyridin-2-yl)piperidin-4-yl)amino)methyl)phenyl)-N-hydroxyacrylamide formate], the IC50 with NCI-H69 cells turned out to be 15.3 nM; in the assay on NCI-H526 cells, 35.6 nM; in the assay on NCI-H1417 cells, 13.4 nM; on pan-HDAC, 1.01 nM; at HDAC1 it was 1.77 nM; at LSD1 it was 10.2 nM.

`COc1ccc(-c2cnc(N3CCC(NCc4cnc(/C=C/C(=O)NO)cc4Cl)CC3)c(C#N)c2-c2ccc(C#N)c(F)c2)cc1O` [Example 227, (E)-3-(4-Chloro-5-(((1-(3-cyano-4-(4-cyano-3-fluorophenyl)-5-(3-hydroxy-4-methoxyphenyl)pyridin-2-yl)piperidin-4-yl)amino)methyl)pyridin-2-yl)-N-hydroxyacrylamide formate]: the IC50 in the assay on NCI-H69 cells came out at 24.1 nM; in the assay with NCI-H526 cells, 109 nM; with NCI-H1417 cells, 7.36 nM; on pan-HDAC, 11.3 nM; on HDAC1, 9.71 nM; against LSD1, 0.64 nM.

For `N#Cc1ccc(-c2c(-c3ccc(Cl)c(O)c3)cnc(N3CCC(NCc4ccc(/C=C/C(=O)NO)cc4)CC3)c2C#N)cn1` [Example 237, (E)-3-(4-((1-(5′-(4-Chloro-3-hydroxyphenyl)-3′,6-dicyano-[3,4′-bipyridin]-2′-yl)piperidin-4-yl)amino)methyl) phenyl)-N-hydroxyacrylamide formate], the IC50 in the assay on NCI-H69 cells was 3.27 nM; in the assay with NCI-H526 cells it was 4.4 nM; with NCI-H1417 cells it was 4.06 nM; on pan-HDAC, 3.37 nM; on HDAC1 it was 1.29 nM; at LSD1, 1.75 nM.

As to `N#Cc1ccc(-c2c(-c3ccc(Cl)c(O)c3)cnc(N3CCC(NCc4ccc(/C=C/C(=O)NO)cn4)CC3)c2C#N)cn1` [Example 238, (E)-3-(6-((1-(5′-(4-Chloro-3-hydroxyphenyl)-3′,6-dicyano-[3,4′-bipyridin]-2′-yl)piperidin-4-yl)amino)methyl) pyridin-3-yl)-N-hydroxyacrylamide formate], the IC50 was 28.7 nM in the assay with NCI-H69 cells; 56.1 nM in the assay with NCI-H526 cells; 25.7 nM with NCI-H1417 cells; 4.05 nM at pan-HDAC; 1.62 nM on HDAC1; 3.48 nM at LSD1.

Regarding `COc1cc(F)c(-c2cnc(N3CCC(NCc4ccc(/C=C/C(=O)NO)cn4)CC3)c(C#N)c2-c2ccc(C#N)nc2)cc1O` [Example 240, (E)-3-(6-(((1-(3′,6-Dicyano-5′-(2-fluoro-5-hydroxy-4-methoxyphenyl)-[3,4′-bipyridin]-2′-yl)piperidin-4-yl)amino)methyl)pyridin-3-yl)-N-hydroxyacrylamide formate], the concentration for half-maximal inhibition (IC50) was determined as 24.8 nM in the assay with NCI-H69 cells; 60.9 nM in the assay with NCI-H526 cells; 9.62 nM with NCI-H1417 cells; 4.73 nM against pan-HDAC; 1.85 nM on HDAC1; 0.82 nM against LSD1.

As to `N#Cc1ccc(-c2c(-c3ccc(Cl)c(O)c3)cnc(N3CCC(NCc4ccc(/C=C/C(=O)NO)cc4F)CC3)c2C#N)cn1` [Example 241, (E)-3-(4-(((1-(5′-(4-Chloro-3-hydroxyphenyl)-3′,6-dicyano-[3,4′-bipyridin]-2′-yl)piperidin-4-yl)amino)methyl)-3-fluorophenyl)-N-hydroxyacrylamide formate], the IC50 is 5.7 nM in the assay with NCI-H69 cells; 11.2 nM in the assay on NCI-H526 cells; 5.78 nM with NCI-H1417 cells; 7.81 nM at pan-HDAC; 1.86 nM at HDAC1; 2.95 nM against LSD1.

Turning to `COc1ccc(-c2cnc(N3CCC(NCc4ccc(/C=C/C(=O)NO)cc4)CC3)c(C#N)c2-c2cnc(C#N)c(OC)c2)cc1O` [Example 243, (E)-3-(4-(((1-(3′,6-Dicyano-5′-(3-hydroxy-4-methoxyphenyl)-5-methoxy-[3,4′-bipyridin]-2′-yl)piperidin-4-yl)amino)methyl)phenyl)-N-hydroxyacrylamide hydrochloride], the IC50 amounted to 3.24 nM in the assay with NCI-H69 cells; 10.6 nM in the assay on NCI-H526 cells; 10.5 nM with NCI-H1417 cells; 1.74 nM against pan-HDAC; 0.6 nM on HDAC1; 13.6 nM at LSD1.

The record behind these values is US20250304549A1, “HYDROXYAMIDE DERIVATIVE AND USE THEREOF” (SICHUAN HUIYU PHARMACEUTICAL CO., LTD., priority 2022, published 2025).
